Data as given in patent publication US20150306096A1, “8'-HYDROXY-DIHYDROERGOTAMINE COMPOUNDS AND COMPOSITIONS” (MAP Pharmaceuticals, Inc., priority 2012, published 2015).

What was measured:
[1] = subcutaneous, 1.5 mM; cited from earlier work
Somatostatin (SST1~SST5) = test: GTPγS assay; assay type: biochemical, human; conditions: Somatostatin receptors
Method: (§1) Additional receptor agonist/agonist activity assessments were performed using the 8′-OH DHE test compound. Table 12 contains a summary of the cell lines (CHO-K1/HEK293 transfected with relevant human receptor) and the assays performed to detect any agonist or antagonist activity.
(§2) Reagents used were the following: Assay buffer (20 mM HEPES, pH 7.4; 100 mM NaCl; 10 mg/mL saponin; 30 mM MgCl2); Membranes (recombinant human receptor membrane extracts were thawed on ice and diluted in assay buffer to give […] (10 μgμL) and kept on ice); GDP (diluted in assay buffer to give 30 μM solution (3 μM final concentration); beads (PVT-WGA (Amersham, RPNQ001), diluted in assay buffer at 25 mg/mL (0.25 mg/10 μL)); GTPγ^35S (Perkin Elmer, NEG030X), diluted in assay buffer to give 0.1 nM (final concentration); and ligand (agonist/antagonist diluted in assay buffer).
(§3) Membranes were mixed with GDP (1:1) and incubated for at least 15 minutes on ice. In parallel, GTPγ^35S was mixed with the beads (1:1) just before starting the reaction. […] The plates were then centrifuged for 10 minutes at 2,000 rpm and incubated at RT for 1 hour and counted for 1 min/well with a Perkin Elmer TopCount reader.

OP2 (κ) = molecular target: T1, OP2 (κ) (Homo sapiens, UniProt P41145); test: GTPγS assay; assay type: biochemical; conditions: antagonism
T1 construct: expressed in transfected cells; host or cells: CHO-K1 (membrane extracts)
T1 sequence (P41145 whole entry): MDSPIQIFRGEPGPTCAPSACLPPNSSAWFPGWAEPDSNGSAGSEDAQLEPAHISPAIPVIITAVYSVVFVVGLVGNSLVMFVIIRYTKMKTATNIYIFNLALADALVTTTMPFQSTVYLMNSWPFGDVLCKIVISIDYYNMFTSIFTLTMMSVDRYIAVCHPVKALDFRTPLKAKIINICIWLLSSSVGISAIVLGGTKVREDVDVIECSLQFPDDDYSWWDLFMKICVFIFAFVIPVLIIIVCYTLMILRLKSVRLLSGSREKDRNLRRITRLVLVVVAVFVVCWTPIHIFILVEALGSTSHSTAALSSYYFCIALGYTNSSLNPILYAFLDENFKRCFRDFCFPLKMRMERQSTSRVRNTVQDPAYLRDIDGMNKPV
Method: as §1, §2, §3

Calcitonin (CGRP) = molecular target: T2, Calcitonin (CGRP) (Homo sapiens, UniProt O60894+Q16602); test: Aequorin assay; assay type: cell-based; conditions: CGRP receptor
T2 construct: expressed in transfected cells; host or cells: CHO-K1 with apoaequorin (CHO-AEQ)
T2 sequence (Q16602 23-461): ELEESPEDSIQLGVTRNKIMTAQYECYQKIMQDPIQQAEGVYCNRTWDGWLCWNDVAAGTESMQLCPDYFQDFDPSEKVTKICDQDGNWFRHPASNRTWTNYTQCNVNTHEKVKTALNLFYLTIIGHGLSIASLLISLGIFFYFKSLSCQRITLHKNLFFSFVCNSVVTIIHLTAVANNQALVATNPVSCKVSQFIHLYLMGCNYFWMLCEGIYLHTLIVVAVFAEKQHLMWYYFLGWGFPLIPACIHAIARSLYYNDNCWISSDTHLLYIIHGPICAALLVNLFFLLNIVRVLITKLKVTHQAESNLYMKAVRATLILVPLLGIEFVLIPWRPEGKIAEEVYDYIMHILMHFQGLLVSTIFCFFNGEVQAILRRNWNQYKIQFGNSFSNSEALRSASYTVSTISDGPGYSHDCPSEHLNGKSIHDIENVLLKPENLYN
T2 sequence (O60894 27-148 partner): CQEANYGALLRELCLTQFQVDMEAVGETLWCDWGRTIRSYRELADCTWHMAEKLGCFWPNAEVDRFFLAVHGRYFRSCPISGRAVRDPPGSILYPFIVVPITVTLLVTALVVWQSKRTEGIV
Method: as §1
Aequorin assays were conducted to monitor activity for 8′-OH DHE against the receptors indicated in Table 12 above (except for mGlu3 and mGlu5). CHO-K1 cells co-expressing mitochondrial apoaequorin and the recombinant human receptor of interest were grown to mid-log phase in culture media without antibiotics and then detached with PBS-EDTA, centrifuged and resuspended in assay buffer (DMEMHAM's F12 with HEPES, without phenol red+0.1% BSA, protease free) at a concentration of 1×10^6 cell/mL. Cells were incubated at RT for at least 4 hours with coelenterazine h. […]
50 μL of the cell suspension was mixed with 50 μL of test or reference agonist in a 96-well plate. The resulting emission of light was recorded using Hamamatsu Functional Drug Screening System 6000 (FDSS 6000) luminometer. […] The resulting emission of light was recorded using the FDSS 6000 luminometer. To standardize the emission of recorded light (and determine of the ‘100% signal’) across plates and across different experiments, some wells contained 100 μM digitonin or a saturating concentration of ATP (20 μM).

[2] = tested on: Cholecystokinin (CCK1/CCK2); test: Aequorin assay; assay type: cell-based, human; conditions: CCK receptors
Method: as §1
(§4) Aequorin assays were conducted to monitor activity for 8′-OH DHE against the receptors indicated in Table 12 above (except for mGlu3 and mGlu5). CHO-K1 cells co-expressing mitochondrial apoaequorin and the recombinant human receptor of interest were grown to mid-log phase in culture media without antibiotics and then detached with PBS-EDTA, centrifuged and resuspended in assay buffer (DMEMHAM's F12 with HEPES, without phenol red+0.1% BSA, protease free) at a concentration of 1×10^6 cell/mL. Cells were incubated at RT for at least 4 hours with coelenterazine h. Reference agonistant/agonist was tested to evaluate the performance of the assay and to determine EC50/IC50.
(§5) 50 μL of the cell suspension was mixed with 50 μL of test or reference agonist in a 96-well plate. The resulting emission of light was recorded using Hamamatsu Functional Drug Screening System 6000 (FDSS 6000) luminometer. For antagonist testing, 100 μL of the reference agonist at its EC80 was injected on the mix of cells and test compound, following an incubation of 15 minutes after the first injection. The resulting emission of light was recorded using the FDSS 6000 luminometer. To standardize the emission of recorded light (and determine of the ‘100% signal’) across plates and across different experiments, some wells contained 100 μM digitonin or a saturating concentration of ATP (20 μM).

Neurokinin (NK1/NK2/NK3) = test: Aequorin assay; assay type: cell-based, human; conditions: Neurokinin receptors
Method: as §1, §4, §5

Orexin (OX1/OX2) = test: Aequorin assay; assay type: cell-based, human; conditions: Orexin receptors
Method: as §1, §4, §5

[3] = tested on: VIP/PACAP (PAC1/VPAC1/VPAC2); test: Aequorin assay; assay type: cell-based, human; conditions: VIP/PACAP receptors
Method: as §1, §4, §5

## CN1C[C@H](C(=O)N[C@]2(C)O[C@@]3(O)[C@@H]4CCCN4C(=O)[C@H](Cc4ccccc4)N3C2=O)C[C@@H]2c3cccc4[nH]cc(c34)C[C@H]21 [DHE, Dihydroergotamine]
[1]
  nausea, share of treated patients: ~16%

## CN1C[C@H](C(=O)N[C@]2(C)O[C@@]3(O)[C@@H]4CCC(O)N4C(=O)[C@H](Cc4ccccc4)N3C2=O)C[C@@H]2c3cccc4[nH]cc(c34)C[C@H]21 (some centres unmarked) [8′-OH DHE, 8′-Hydroxy-Dihydroergotamine]
Somatostatin (SST1~SST5)
  Activity (Agonism: EC50; Antagonism: IC50): Inactive
OP2 (κ)
  IC50: > 1000 nM
Calcitonin (CGRP)
  Activity (Agonism: EC50; Antagonism: IC50): Inactive
[2]
  Activity (Agonism: EC50; Antagonism: IC50): Inactive
Neurokinin (NK1/NK2/NK3)
  Activity (Agonism: EC50; Antagonism: IC50): Inactive
Orexin (OX1/OX2)
  Activity (Agonism: EC50; Antagonism: IC50): Inactive
[3]
  Activity (Agonism: EC50; Antagonism: IC50): Inactive
